Consider 31 compounds from PubChem BioAssay (NCI).

Common to all, as to experiment: NCI-60 cell line screen, 48 h
Assay [1] relates to SK-MEL-2 melanoma.
The subject of assay [2] is SF-295 CNS.
Assay [3] concerns CAKI-1 renal.
Assay [4] has as its system DU-145 prostate.
Assay [5] has as its system SNB-75 CNS.
Assay [6] deals with SF-539 CNS.
In assay [7] the test system is OVCAR-3 ovarian.
Assay [8] relates to RPMI-8226 leukemia.
Assay [9] relates to ACHN renal.
The test system of assay [10] is RXF 393 renal.

The structures appear in SMILES notation.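 All cell lines were grown in 96-well plates and treated with compound for 48 hours. GI50: concentration for 50% inhibition of growth. At the TGI there is no net growth.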 Where only a bound is given, the exact number is not on record here.

On to `CN(C)CCn1c(=O)c2ccc(NCCN3CCNCC3)c3c(=O)c4ccccc4n(c1=O)c23`, for which the TGI in assay [1] was 8.72 µM; in assay [2], 18 µM; in assay [3], 10.2 µM; in assay [4], 17.7 µM; in assay [5] it was 10.1 µM; in [6], 9 µM. The results for the TGI in assay [7], in [8] and in assay [9] were 25.1 µM, 2.93 µM and 15.7 µM, respectively.

Take `CC(C)NC(=O)OCc1c(CO)c2c(n1C)-c1ccccc1CC2`: the TGI is more than 100 µM in [1]; more than 100 µM in [2]; 29.7 µM in assay [3]; 49.6 µM in assay [10]; more than 100 µM in [5]; 57.3 µM in assay [6]. Further, the TGI in [7] came out at 66.9 µM; in [8] it was 49.4 µM.

With `O=C1CSC(c2ccccc2[N+](=O)[O-])N1c1ccc(-c2ccc(-n3c(-c4ccccc4)nc4ccccc4c3=O)cc2)cc1` (stereo unspecified), the TGI was more than 100 µM in assay [1]; more than 100 µM in assay [2]; more than 100 µM in assay [3]; more than 100 µM in [4]; 61.3 µM in assay [5]; more than 100 µM in assay [6]. Further, the TGI in assay [7], in assay [8] and in assay [9] was more than 100 µM each time.

As for `COC(=O)c1ccc(N=NN(C)COc2ccc(Br)cc2)cc1`, the TGI in [1], in assay [2], in assay [3], in assay [10], in assay [5] and in assay [6] was more than 100 µM in each case. For the same compound, the TGI is more than 100 µM in assay [7] and more than 79.8 µM in [8].

As for `CCOc1ccc(N/C(=C(/C(Cl)=C(/Cl)N2CCCCC2)[N+](=O)[O-])n2nnc3ccccc32)cc1`, the TGI in assay [1] came out at 33.3 µM; in assay [2] it was 49 µM; in assay [3], 28.4 µM; in assay [4], 82.4 µM; in assay [5], 50.6 µM; in assay [6], 36.9 µM. In addition, the results for the TGI in assay [7], in [8] and in assay [9] were 33.7 µM, more than 100 µM and 36 µM, respectively.

With `COC1CN(C)C(=Nc2cccc3ccccc23)S1` (stereo unspecified), the TGI in [2], in assay [3], in [4], in [5], in assay [6] and in [8] was more than 10 µM in each case. The compound also yielded a TGI in assay [9] of more than 10 µM.

Consider `Cc1ccc(/C(O)=C/C(=O)C(=O)NC23CC4CC(CC(C4)C2)C3)cc1`, for which the TGI in [2], in assay [3], in assay [10], in assay [4], in [5] and in [8] was more than 10 µM each time.

`NCCCC[C@H](N)C(=O)Nc1ccc(-c2nc3ccccc3s2)cc1`: the TGI was more than 100 µM in assay [1]; 31 µM in [2]; more than 100 µM in [3]; more than 100 µM in assay [10]; 49.1 µM in assay [4]; 35.2 µM in assay [5]. For the same compound, the TGI was 37.2 µM in assay [7] and 55 µM in assay [9].

As for `CC(=O)Nc1ccc2c3c(cc(O)c2c1)N(C(=O)CCCCCCC(=O)N1CC(CCl)c2c1cc(O)c1cc(NC(C)=O)ccc21)CC3CCl` (stereo unspecified), the TGI in assay [1] was less than 0.01 µM; in assay [2], 3.19 µM; in assay [3], 0.894 µM; in assay [10], 0.0185 µM; in assay [4] it was less than 0.01 µM; in assay [5], less than 0.01 µM. In addition, the figures for the TGI in assay [6] and in assay [9] were 0.0413 µM and 0.0345 µM, respectively.

Take `CN1C(=O)C2(C=CC(O)CC2)c2ccccc21` (stereo unspecified): the TGI in assay [1], in [2], in assay [3], in assay [4], in [5] and in assay [7] was more than 100 µM each time. Besides, the TGI in assay [8] and in [9] was more than 100 µM each time.

With `CC(C)NC(=O)N(Nc1ccccc1)C(C)(C)C`, the TGI in assay [1], in assay [2], in assay [3], in [10], in assay [5] and in [6] was more than 100 µM in each case. In addition, the TGI in [7] and in assay [9] was more than 100 µM in each case.

With `C=CCN(C(=O)OC(C)(C)C)[C@H](C)C(=O)N[C@@H](C)C(=O)OC`, the TGI in [1], in assay [2], in assay [3], in assay [4], in assay [6] and in assay [7] was more than 100 µM in each case. Further, the TGI in assay [8] and in assay [9] was more than 100 µM each time.

As for `CCCCCCCCCCCCCCCCCCNC(=S)/N=C\C1=C(O)c2ccccc2C1=O`, the TGI in assay [2] stood at 31.2 µM; in [3] it was 31.2 µM; in assay [4] it was 19.2 µM; in assay [6] it was 36.7 µM; in assay [7], 29.1 µM; in assay [8], 33.1 µM. Further, the TGI in assay [9] worked out at 26.2 µM.

Consider `CC(=O)OCC1OC(n2c(-c3ccccc3)c(C(C)=O)c(-c3cccc4ccccc34)c(C#N)c2=S)C(OC(C)=O)C(OC(C)=O)C1OC(C)=O` (stereo unspecified), for which the TGI in [1], in [2], in assay [10], in assay [4], in assay [5] and in assay [6] was more than 100 µM in each case. Besides, the TGI in assay [7] and in assay [9] was more than 100 µM throughout. Moreover, in assay [5], the GI50 was 0.022 µM.

Regarding `O=[N+]([O-])C(=C(N1CCOCC1)N1CCOCC1)/C(Cl)=C(\Cl)Br`, the TGI in [1] is 44.8 µM; in assay [2] it was more than 100 µM; in assay [4] it was more than 100 µM; in assay [5], 33.2 µM; in assay [6], 57.9 µM; in assay [7], 28.5 µM. Besides, the TGI amounted to 33.5 µM in [8] and 54 µM in assay [9].

For the compound `CC(C)N=C(N)NC#N`, the TGI in assay [1], in assay [2], in [3], in [5], in assay [6] and in assay [7] was more than 100 µM each time. Besides, the TGI in assay [8] and in assay [9] was more than 100 µM each time.

On to `CC(=O)NC1(c2cc3ccccc3s2)CCCCCC1`, for which the TGI is 53.2 µM in assay [1]; more than 100 µM in assay [2]; more than 100 µM in assay [3]; 80.6 µM in [10]; more than 100 µM in assay [4]; 92.2 µM in assay [5]. For the same compound, the TGI is more than 100 µM in assay [6], 62.8 µM in [7] and more than 100 µM in [9].

`COc1cc(C2c3cc4c(cc3OC(NNS(=O)(=O)c3ccc(C)cc3)C2C)OCO4)cc(OC)c1O` (stereo unspecified): the TGI in assay [2] was 17.7 µM; in assay [3] it was 32.8 µM; in [10] it was 54 µM; in assay [4] it was more than 100 µM; in assay [5], 22.7 µM; in [6], 31.4 µM. Also, the figures for the TGI in [7], in [8] and in assay [9] were 50 µM, 41.9 µM and 33.6 µM, respectively.

Turning to `CC(=O)O[C@H]1CC[C@@]2(C)C(=CC[C@@H]3[C@@H]2CC[C@]2(C)c4c(C)nn(-c5ccccc5)c4C[C@@H]32)C1`, the TGI in assay [2] is 12.9 µM; in [3] it was 47.2 µM; in assay [10], 19.3 µM; in [4], 37.2 µM; in assay [5], 49.9 µM; in [7] it was more than 100 µM. Moreover, the TGI in assay [9] was 61.1 µM.

As for `S=C1CCSc2c(ccc3ccccc23)N1`, the TGI in [2], in [3], in assay [10], in assay [4], in assay [5] and in [7] was more than 100 µM each time. The TGI in assay [9] is more than 100 µM.

Consider `CC1=C(O)C(=O)C2C(=O)C1C1Cc3ccccc3C21` (stereo unspecified), for which the TGI in [1], in assay [2], in assay [3], in assay [10], in [5] and in [6] was more than 100 µM in each case. In addition, the TGI in assay [7], in assay [8] and in assay [9] was more than 100 µM each time.

`COc1ccccc1-c1cc(=O)c2cc3c(cc2[nH]1)OCO3`: the TGI in [1] is more than 100 µM; in [2] it was 62.6 µM; in assay [10], 56.2 µM; in assay [5], more than 100 µM; in assay [6], 70.6 µM; in [7] it was more than 100 µM. The TGI in assay [8] and in [9] was more than 100 µM each time. Besides, the GI50 is 21.1 µM in assay [2], 15.1 µM in assay [10] and 39.9 µM in assay [7].

For the compound `NC(=O)Cc1nc2c(N)ncnc2n1C1OC(CO)C(O)C1O` (stereo unspecified), the TGI in assay [1], in [2], in assay [3], in [4], in [6] and in assay [7] was more than 100 µM throughout. For the same compound, the TGI in [8] and in assay [9] was more than 100 µM in each case.

For `C/C(CC(O)(/C=N/O)c1ccccc1)=N/O` (stereo unspecified), the TGI in assay [1], in [2], in assay [3], in assay [6], in assay [7] and in assay [8] was more than 100 µM throughout. This compound came in with a TGI in [9] of more than 100 µM.

Turning to `COc1ccc(/C(Cl)=C(\C=N/O)c2ccc(OC)c(OC)c2)cc1OC`, the TGI in assay [1], in assay [2], in assay [3], in assay [10], in [5] and in assay [6] was more than 100 µM in each case. Besides, the TGI in assay [7], in [8] and in assay [9] was more than 100 µM in each case.

As for `Cc1cc(/C=C/c2cc[n+](C)c3ccccc23)c(O)c2ncccc12`, the TGI was found to be 18.8 µM in assay [1]; 15.5 µM in [2]; 27.6 µM in [3]; 9.83 µM in assay [10]; 24 µM in [5]; 1.99 µM in assay [6]. For the same compound, the TGI was 3.97 µM in assay [7], 6.41 µM in [8] and 16.4 µM in assay [9].

As to `Cc1c(N2CCN(C)CC2)nc2ccc(Cl)cc2c1-c1ccccc1`, the TGI in assay [1] is 36.5 µM; in [2] it was 31.2 µM; in assay [3] it was 41.6 µM; in [10], 42.3 µM; in [5] it was 36.5 µM; in assay [6], 33.9 µM. In addition, the TGI in [7] was found to be 74.3 µM; in assay [8], 44.9 µM; in [9], 57.7 µM.

Regarding `COC1C(O)C(n2ncc3c(SC)nc(SC)nc32)OC1C(O)CO` (stereo unspecified), the TGI in [1], in assay [2], in assay [10], in [5], in assay [6] and in assay [7] was more than 100 µM throughout. The same compound gave a TGI in [8] of more than 100 µM.

As to `N#Cc1c(N2CCC(O)C2)c2ccccc2n2c1nc1ccccc12` (stereo unspecified), the TGI in [1] was more than 100 µM; in assay [2] it was more than 100 µM; in assay [3] it was more than 100 µM; in [4] it was more than 100 µM; in assay [5], 62.9 µM; in [6], more than 100 µM. The TGI was more than 100 µM in assay [7], more than 100 µM in assay [8] and 42 µM in assay [9].

Take `COC1CC(COCc2ccccc2)CC(OC)O1` (stereo unspecified): the TGI in assay [2], in [3], in assay [10], in assay [4], in [5] and in assay [6] was more than 100 µM each time. The TGI in assay [7], in assay [8] and in assay [9] was more than 100 µM throughout.

With `COC(O)C(=O)c1ccc2c(c1)CC1(C2)Cc2cc3c(cc2C1=O)CCC3` (stereo unspecified), the TGI in [1] came out at 47.1 µM; in assay [2] it was 44.1 µM; in assay [3] it was 31.2 µM; in assay [4] it was 31.1 µM; in [5], 37.5 µM; in [6], 35.4 µM. Also, the TGI is 34.5 µM in [7], 32.7 µM in assay [8] and 30.6 µM in [9].
